# Data: a melting point compilation (Tetko et al.)
row,SMILES,melting point
1,N#Cc1cc(N)ccc1OCC(F)(F)F,78 to 80 °C
2,CCCCC(NC(=O)NCC)C(=O)O (stereo unspecified),96 to 98 °C
3,Clc1nccc(OCc2ccccc2)n1,49 to 51 °C
4,CC(C)(C)OC(=O)N1CCC2(C1)NC(=O)NC2=O (stereo unspecified),214 to 216 °C
5,CC(C)Nc1nc(COc2ccccc2)no1,86 to 88 °C
6,NC1CCN(C(=O)C2CCCCC2)C1 (stereo unspecified),72 to 74 °C
7,COCc1c(C(=O)O)sc2cccc(F)c12,130 to 139 °C
8,COc1ccc(C(C)=O)cc1Cn1cccn1,80 to 82 °C
9,CCCc1c(C(=O)O)nnn1-c1cccc(C(C)C)c1,78 to 80 °C
10,O=C(CCl)Nc1ccc(N2CCc3ccccc32)cc1,167 to 169 °C
11,Cc1cc(C(=O)CCl)c(F)cc1F,80 to 82 °C
12,CS(=O)(=O)c1ccc(Cl)s1,69 to 71 °C
13,O=c1[nH]c(S)nc2scc(-c3ccc(F)cc3)c12,200 to 202 °C
14,O=C(O)c1c[nH]c(Br)c1,119 to 121 °C
15,O=C(O)c1ccc(NC(=O)c2cc(Cl)cc(Cl)c2)cc1,305 to 307 °C
16,CN(C)c1cc(C#N)ccn1,69 to 71 °C
17,N#CCN(C(=O)c1ccccc1)C1CC1,103 to 105 °C
18,CN(c1cc(C(=O)O)ccn1)C1CCCC1,179 to 181 °C
19,O=C(CCl)N1CCN(C(=O)Nc2ccccc2)CC1,168 to 170 °C
20,Cc1ccc(C(=O)NC(C(=O)O)C(C)C)cc1 (stereo unspecified),155 to 157 °C
21,COC(=O)c1ccc(S(=O)(=O)Cl)cc1C,54 to 56 °C
22,Nc1cccc(NC(=O)Nc2cccc(C(F)(F)F)c2)c1,180 to 182 °C
23,Cc1nn(-c2ccccc2)c(N)c1C(F)(F)F,77 to 79 °C
24,CN(C)C(=O)Cn1ccc2cc(N)ccc21,124 to 126 °C

row,SMILES,melting point
1,O=C(O)c1c(O)cnc2ccccc12,199 to 201 °C
2,NC(=NO)c1ccc(N2CCCCC2)nc1,165 to 167 °C
3,CS(=O)(=O)c1ccc(-c2nnc(N)o2)cc1,297 to 299 °C
4,O=C(O)CN1C(=O)C2CCCCC2C1=O (stereo unspecified),88 to 90 °C
5,CC(C)(C)OC(=O)N1CCC(OC(=O)c2cccc(N)c2)CC1,124 to 126 °C
6,O=c1ccnc(-c2cccc(O)c2)[nH]1,229 to 231 °C
7,CCn1c(S)nnc1-c1ccccc1OC,171 to 173 °C
8,Cc1nc(-c2ccccc2)sc1N,117 to 119 °C
9,CS(=O)(=O)Nc1cc(C(=O)O)ccc1Cl,275 to 277 °C
10,COC(=O)c1cc(S(=O)(=O)Cl)c(Br)cc1Cl,135 to 137 °C
11,CC(=O)c1cccc(N2CCCS2(=O)=O)c1,84 to 86 °C
12,CCN(CC)S(=O)(=O)c1ccc(C(=O)CBr)cc1,79 to 81 °C
13,COc1cc(OC)cc(-c2nnc(S)n2N)c1,178 to 180 °C
14,Clc1ncnc2c1CCCC2,79 to 81 °C
15,Cc1ccc(C)c(-c2nc(N)sc2C)c1,92 to 94 °C
16,CC(Cl)C1CC(c2ccccc2)=NO1 (stereo unspecified),59 to 61 °C
17,Cc1cc2nc(Cl)cc(=O)n2o1,203 to 204 °C
18,O=S(=O)(c1cccc(Br)c1)N1CCNCC1,97 to 101 °C
19,Cc1ccc(-c2nn(-c3ccccc3)cc2C=O)cc1C,102 to 104 °C
20,Nc1nc2c(s1)CCCCCC2,202 to 204 °C
21,CS(=O)(=O)Cc1nc(Cl)c(Br)c(Cl)n1,174 to 176 °C
22,COc1ccc(CNC(=O)n2ccnc2)cc1OC,136 to 138 °C
23,Nc1ccccc1N1CCN(CCc2ccncc2)CC1,119 to 121 °C
24,O=[N+]([O-])c1cc(S(=O)(=O)Cl)c(Br)cc1F,80 to 82 °C

row,SMILES,melting point
1,COC(=O)CNC(=O)Cc1ccc(N)cc1,93 to 95 °C
2,CC(=O)c1cc(C#N)c(SCC(=O)O)nc1C,187 to 189 °C
3,Nc1cccc(S(=O)(=O)N2CCCC2)c1,156 to 158 °C
4,CSc1ccc(CC(=O)O)cc1,97 to 98 °C
5,CC(C)C(Br)C(=O)c1ccccc1 (stereo unspecified),49 to 51 °C
6,Cc1ccc(C(=O)N(C)c2ccc(O)cc2)cc1,115 to 117 °C
7,CCc1oc2ccccc2c1C(=O)O,89 to 91 °C
8,O=C(O)CN(Cc1ccco1)c1cccc(Cl)c1,115 to 117 °C
9,O=C(O)c1c[nH]cc1C1CC1,150 to 152 °C
10,CC(C)C(NC(=O)c1ccco1)C(=O)O (stereo unspecified),103 to 105 °C
11,COc1ccc(Br)cc1Cc1nnn[nH]1,180 to 182 °C
12,CCn1cc(S(N)(=O)=O)nc1C,179 to 181 °C
13,O=C(CC(=O)NCc1ccccc1)NCc1ccccc1,119 to 121 °C
14,COC(=O)NC(C)(C)C(=O)O,154 to 156 °C
15,Cc1nn(C)c(Cl)c1CO,92 to 94 °C
16,O=C(O)c1ccc(S)c(Cl)c1,219 to 221 °C
17,CC(=O)Nc1cccc(NC(=O)CCl)c1,173 to 175 °C
18,CC1Oc2ccccc2N(CC(=O)O)C1=O (stereo unspecified),146 to 148 °C
19,CCC(=O)Nc1ccc(O)c(C(=O)O)c1,217 to 219 °C
20,O=C(O)c1cc(-c2ccccc2)cc(Cl)c1O,202 to 204 °C
21,CC(Cl)C(=O)Nc1ccc(NC(=O)c2cccs2)cc1 (stereo unspecified),227 to 229 °C
22,CC1CCc2[nH]c(=O)sc2C1 (stereo unspecified),180 to 182 °C
23,C1CCC(c2nnc3n2CCCC3)NC1 (stereo unspecified),107 to 109 °C
24,O=C(c1ccccn1)c1cc2ccccc2o1,96 to 98 °C

row,SMILES,melting point
1,COc1ccc(N2CCCNC(=O)C2)cc1,172 to 174 °C
2,COc1cc(C(=O)O)cc(Cl)c1OCC(N)=O,211 to 213 °C
3,O=Cc1c(Cl)c2ccccc2oc1=O,113 to 115 °C
4,c1ccc(OCCc2nc3ccccc3[nH]2)cc1,136 to 138 °C
5,OC(c1ccccc1)c1nc(-c2ccccc2)no1 (stereo unspecified),97 to 99 °C
6,CCNCC(O)c1ccc(C)cc1 (stereo unspecified),88 to 90 °C
7,CN(C)C(=O)Sc1cnc2nc(C#N)c(C#N)n2c1,180 to 182 °C
8,O=C(CCl)N1CCCc2cc(S(=O)(=O)N3CCCC3)ccc21,146 to 148 °C
9,O=c1c2cc(Cl)ccc2nc2n1CCC2,180 to 182 °C
10,Nc1nnc(-c2ccncc2)o1,239 to 241 °C
11,CC(C)(C)C(=O)COc1ccc([N+](=O)[O-])cc1Cl,114 to 116 °C
12,CCC(C)(N)C(=O)O (stereo unspecified),276 to 278 °C
13,Cc1ccc2c(c1)OC(C)C(=O)N2 (stereo unspecified),154 to 156 °C
14,COC(=O)C(=O)CC(=O)c1ccc(Br)cc1,104 to 106 °C
15,Cc1sc(NC(=O)CCl)c(C#N)c1C,180 to 182 °C
16,Cc1cc(C)cc(N(CCC(=O)O)S(=O)(=O)c2ccc(Br)cc2)c1,133 to 135 °C
17,COc1ccc(C(=O)O)cc1-c1ccccc1,220 to 222 °C
18,O=C(O)c1cccc(Oc2nccs2)c1,102 to 104 °C
19,CC(O)(C(=O)O)c1cccc(F)c1 (stereo unspecified),99 to 101 °C
20,CC(C)(C)OC(=O)NC1CCN(c2ccc(C#N)cn2)CC1,188 to 190 °C
21,NC(=S)COc1ccccc1-c1ccccc1,177 to 179 °C
22,CC(C)c1n[nH]c(-c2ccccc2N)n1,125 to 127 °C
23,Brc1ccc(Cc2nnn[nH]2)cc1,172 to 174 °C
24,Cn1ccnc1Sc1ccc(F)cc1N,136 to 138 °C

row,SMILES,melting point
1,N#CC1CNCCN1Cc1ccccc1 (stereo unspecified),98 to 100 °C
2,CCn1cc(C(=O)C(=O)O)cn1,129 to 131 °C
3,O=C(O)c1cc(C2CC2)nc2onc(-c3ccco3)c12,211 to 213 °C
4,O=C(O)c1cccc(NC(=O)C2CC2)c1,264 to 266 °C
5,O=C(NCc1nnc2n1CCC2)OCC(F)(F)F,131 to 133 °C
6,O=c1[nH]c(CCl)nc2sc3c(c12)CCC3,230 to 238 °C
7,Nc1ccc(Oc2ccccn2)cc1,62 to 64 °C
8,Cc1nn(C)c(Br)c1C#N,109 to 111 °C
9,CC(C)(C)OC(=O)NC1C2CCC(C2)C1C(=O)O (stereo unspecified),140 to 142 °C
10,CCOC(=O)c1c(CCCO)cnc2c(C#N)cnn12,94 to 96 °C
11,N#Cc1ccc(Cl)cc1NC1CCOCC1,143 to 145 °C
12,ClCc1nc(-c2ccc3c(c2)OCO3)no1,50 to 52 °C
13,CC(C)(C)c1ccc(-c2cc(N)on2)cc1,148 to 150 °C
14,N#Cc1ccc(NC(=O)CC2CCCC2)cc1,145 to 147 °C
15,Cn1ccnc1SCC(=O)Nc1ccc(C(=O)O)cc1,171 to 173 °C
16,CC1(c2ccc3c(c2)OCCCO3)NC(=O)NC1=O (stereo unspecified),192 to 194 °C
17,O=C(O)CSc1nccn1-c1ccc(Br)cc1,203 to 205 °C
18,Nc1nonc1-c1ccccc1,96 to 98 °C
19,O=C(CCl)NCc1ccccc1CN1CCCC1=O,125 to 127 °C
20,O=C(O)C1C2CCCCC21 (stereo unspecified),86 to 88 °C
21,Cc1ccc(-n2nc(C)c(C=O)c2Cl)cc1,135 to 137 °C
22,N#Cc1cc(Cl)nc2ccc(Cl)cc12,168 to 170 °C
23,O=C(O)C(Nc1ccccc1)c1ccccc1F (stereo unspecified),115 to 117 °C
24,O=C(NCCO)c1ccccc1C(F)(F)F,61 to 63 °C

row,SMILES,melting point
1,CC1C(=O)Nc2ccc(S(=O)(=O)Cl)cc21 (stereo unspecified),164 to 168 °C
2,Cc1ccc2c(C3CCNCC3)c[nH]c2c1,176 to 178 °C
3,O=C(O)c1nn(-c2ccc(F)cc2)c2c1CCC2,202 to 204 °C
4,Nc1cc(C2CC2)nc2ccc(Cl)cc12,96 to 98 °C
5,Cc1cc(C(=O)CCl)c(C)n1-c1ccccn1,76 to 78 °C
6,COC(=O)c1ccc(F)cc1S,41 to 43 °C
7,O=C(O)c1cc(S(=O)(=O)Cl)c(Br)o1,139 to 141 °C
8,Nc1ccc(-n2ncc3ccccc32)cc1,158 to 160 °C
9,Cc1cc(/C=C/C(=O)O)c(C)n1-c1ccc2c(c1)OCO2,194 to 196 °C
10,COc1ccc(C(=O)NN)cc1Br,137 to 139 °C
11,Nc1c(F)cccc1C(=O)O,182 to 186 °C
12,COc1cccc(CO)c1OC(F)F,77 to 79 °C
13,CCOC(=O)C1=C(C)NN=C(C)C1,99 to 101 °C
14,COc1ccc(C(C)C(=O)O)cc1 (stereo unspecified),52 to 54 °C
15,COC(=O)c1ccc(F)c(C)c1N,35 to 37 °C
16,Cc1ccccc1-n1nc(C(C)(C)C)cc1N,112 to 114 °C
17,Cc1cc(N)n(-c2ccc(C(F)(F)F)cn2)n1,119 to 121 °C
18,CN(C)CCc1ccc(C(=O)O)cc1,163 to 165 °C
19,O=Cc1ccc(-c2ccc(Cl)cc2)s1,83 to 87 °C
20,Cc1ccccc1C(N)CC(=O)O (stereo unspecified),225 to 227 °C
21,COC(=O)c1c(Cl)ncnc1Cl,50 to 52 °C
